This test has as its target human LPAR1 (Homo sapiens, UniProt Q92633). Description: In vitro functional assay of lysophosphatidic acid receptor 1 activity (calcium flux). The class given is cell-based. (Calcium assays in cells follow changes in intracellular calcium, usually with a dye or a luminescent sensor.)
The mark [1] stands for this setting: B103 cells stably expressing human LPAR1, calcium flux (Fluo-4 NW) after lysophosphatidic acid (18:1) at EC80, 100 pM to 10 μM, read-out: LPAR1 IC50.

Results on 40 molecules are retold here after patent US20250034110A1, “LPAR1 ANTAGONISTS AND USES THEREOF” (Pipeline Therapeutics, Inc., priority 2021, published 2025).

The structures appear in SMILES notation. Where two headings read alike, the source gives them in different places.

human LPAR1, sequence (Q92633 whole entry): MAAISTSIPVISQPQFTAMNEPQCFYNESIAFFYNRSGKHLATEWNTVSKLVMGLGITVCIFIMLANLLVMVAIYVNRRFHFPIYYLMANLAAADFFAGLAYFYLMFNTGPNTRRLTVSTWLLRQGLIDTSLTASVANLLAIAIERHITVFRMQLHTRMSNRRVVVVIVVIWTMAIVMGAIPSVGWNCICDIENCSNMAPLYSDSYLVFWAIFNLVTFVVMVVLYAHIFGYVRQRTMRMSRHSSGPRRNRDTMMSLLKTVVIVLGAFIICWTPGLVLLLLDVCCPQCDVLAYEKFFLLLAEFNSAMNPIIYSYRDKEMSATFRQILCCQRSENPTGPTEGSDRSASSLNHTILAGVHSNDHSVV

In the case of `Cc1ccc(NC(=O)N(c2ccccc2C(C)C)C2CC3(C2)CN(S(N)(=O)=O)C3)c(OC(F)F)c1` [Example 128], the IC50 (commonly the concentration needed to halve the response being measured) under setting [1] was 10 to 100 nM.

For the molecule `COc1ccc(NC(=O)N(c2ccccc2C(C)C)[C@H]2CC[C@](C)(C(=O)O)CC2)c(OC(F)F)n1` [Example 340], the IC50 under setting [1] was in the range of 10 to 100 nM.

On to `CC(=O)N1CCC(N(C(=O)Nc2ccc(C)nc2OC(F)F)c2cnccc2C(C)C)CC1` [Example 36, 1-(1-acetylpiperidin-4-yl)-3-(2-(difluoromethoxy)-6-methylpyridin-3-yl)-1-(4-isopropylpyridin-3-yl)urea], for which the IC50 (LPAR1 IC50) was in the range of 100 to 1000 nM.

Take `Cc1ccc(NC(=O)N(c2ccccc2C(C)C)[C@H]2CC[C@H](C(=O)O)CC2)c(OCC(F)F)n1` [Example 335, (1r,4r)-4-(3-(2-(2,2-difluoroethoxy)-6-methylpyridin-3-yl)-1-(2-isopropylphenyl)ureido)cyclohexane-1-carboxylic acid]: under setting [1], the IC50 fell in the range of 10 to 100 nM.

With `Cc1ccc(NC(=O)N(c2ccccc2C(C)C)[C@H]2CC[C@@H](C(=O)O)C2)c(OC(F)F)n1` [Example 301], the IC50 under setting [1] was 10 to 100 nM.

Regarding `Cc1ccc(NC(=O)N(c2ccccc2C(C)C)C2CC(C=O)C2)c(OC(F)F)n1` (stereo not shown) [Example 194, 3-(2-(difluoromethoxy)-6-methylpyridin-3-yl)-1-(3-formylcyclobutyl)-1-(2-isopropylphenyl)urea], under setting [1], the IC50 fell in the range of 100 to 1000 nM.

Take `Cc1ccc(NC(=O)N(c2ccccc2C(C)C)[C@H]2CC[C@H](c3cccnc3)CC2)c(OC(F)F)n1` [Example 261, 3-(2-(difluoromethoxy)-6-methylpyridin-3-yl)-1-(2-isopropylphenyl)-1-((1r,4r)-4-(pyridin-3-yl)cyclohexyl)urea]: the IC50 under setting [1] was 100 to 1000 nM.

In the case of `Cc1ccc(NC(=O)N(c2ccccc2C(C)C)[C@H]2CC[C@H](O)CC2)c(OC(F)F)n1` [Example 239, 3-(2-(difluoromethoxy)-6-methylpyridin-3-yl)-1-((1r,4r)-4-hydroxycyclohexyl)-1-(2-isopropylphenyl)urea], the IC50 under setting [1] lay within 100 to 1000 nM.

As to `Cc1ccc(NC(=O)N(c2ccccc2C(C)C)C2CN(C3COC3)C2)c(OC(F)F)n1` [Example 22, 3-(2-(difluoromethoxy)-6-methylpyridin-3-yl)-1-(2-isopropylphenyl)-1-(1-(oxetan-3-yl)azetidin-3-yl)urea], the IC50 under setting [1] lay within 100 to 1000 nM.

In the case of `CC(C)c1ccccc1N(C(=O)Nc1cc(F)c(C2CC2)nc1OC(F)F)[C@H]1CC[C@H](C(=O)O)CC1` [Example 223], the IC50 under setting [1] lay within 10 to 100 nM.

On to `COCc1ccc(NC(=O)N(c2ccccc2C(C)C)[C@H]2CC[C@H](C(=O)O)CC2)c(OCC(F)F)n1` [Example 318, (1r,4r)-4-(3-(2-(2,2-difluoroethoxy)-6-(methoxymethyl)pyridin-3-yl)-1-(2-isopropylphenyl)ureido)cyclohexane-1-carboxylic acid], for which the IC50 under setting [1] is 100 to 1000 nM.

Consider `COc1ccc(NC(=O)N(c2ccccc2C(C)C)C2CN(C(C)=O)C2)c(OC(F)F)n1` [Example 41, 1-(1-acetylazetidin-3-yl)-3-(2-(difluoromethoxy)-6-methoxypyridin-3-yl)-1-(2-isopropylphenyl)urea], for which the IC50 under setting [1] fell in the range of 100 to 1000 nM.

For `Cc1ccc(NC(=O)N(c2ccccc2C(C)C)[C@H]2CC[C@H](C(=O)O)CC2)c(OC(F)F)n1` [Example 155, trans-4-(3-(2-(difluoromethoxy)-6-methylpyridin-3-yl)-1-(2-isopropylphenyl)ureido)cyclohexane-1-carboxylic acid], the IC50 under setting [1] fell in the range of 10 to 100 nM.

Take `C#CCCS(=O)(=O)NC(=O)[C@H]1CC[C@H](N(C(=O)Nc2ccc(OC)nc2OC(F)F)c2ccccc2C(C)C)CC1` [Example 280]: the IC50 under setting [1] was less than 10 nM.

`Cc1ccc(NC(=O)N(c2ccccc2C(C)C)[C@H]2C[C@@H](CO)C2)c(OC(F)F)n1` [Example 193, 3-(2-(difluoromethoxy)-6-methylpyridin-3-yl)-l-((1 s,3s)-3-(hydroxymethyl)cyclobutyl)-1-(2-isopropylphenyl)urea]: the IC50 under setting [1] fell in the range of 100 to 1000 nM.

In the case of `COc1ccc(NC(=O)N(c2ccccc2C(C)CO)[C@H]2CC[C@H](C(=O)O)CC2)c(OC(F)F)n1` (stereo partly drawn) [Example 282, (1r,4r)-4-(3-(2-(difluoromethoxy)-6-methoxypyridin-3-yl)-l-(2-(1-hydroxypropan-2-yl)phenyl)ureido)cyclohexane-1-carboxylic acid], the IC50 under setting [1] is 100 to 1000 nM.

As for `Cc1ccc(NC(=O)N(c2ccccc2C(C)C)C2CN(S(N)(=O)=O)C2)c(OC(F)F)n1` [Example 127, 3-(3-(2-(difluoromethoxy)-6-methylpyridin-3-yl)-1-(2-isopropylphenyl)ureido)azetidine-1-sulfonamide], the IC50 under setting [1] lay in the range of 10 to 100 nM.

As to `Cc1ccc(NC(=O)N(c2ccccc2C(C)C)C2CCN(C(=O)OC(C)(C)C)CC2)c(OC(F)F)n1` [Example 1, tert-butyl 4-(3-(2-(difluoromethoxy)-6-methylpyridin-3-yl)-1-(2-isopropylphenyl)ureido)piperidine-1-carboxylate], where the note is “LPAR1 IC50”, the half-maximal inhibitory concentration (IC50) lay in the range of 100 to 1000 nM.

On to `COc1ccc(NC(=O)N(c2ccccc2C(C)C)[C@H]2C[C@@H](C(=O)O)C2)c(OC(F)F)n1` [Example 152], for which the IC50 under setting [1] is 100 to 1000 nM.

Turning to `Cc1ccc(NC(=O)N(CC2CC(CC(=O)O)C2)c2ccccc2C(C)C)c(OC(F)F)n1` (stereo not shown) [Example 224], the IC50 under setting [1] was less than 10 nM.

Take `CC(=O)N1CCC(N(C(=O)Nc2cnccn2)c2ccccc2C(C)C)CC1` [Example 130]: where the note is “LPAR1 IC50”, the IC50 is greater than 1000 nM.

On to `CC(C)c1ccccc1N(C(=O)Nc1cc(F)c(F)cc1OC(F)F)[C@H]1C[C@H](C(=O)O)C1` [Example 164, trans-3-(3-(2-(difluoromethoxy)-4,5-difluorophenyl)-1-(2-isopropylphenyl)ureido)cyclobutane-1-carboxylic acid], for which the IC50 under setting [1] was 10 to 100 nM.

Take `CC(=O)N1CCC(N(C(=O)Nc2ccc(OC(F)F)nc2Cl)c2ccccc2C(C)C)CC1` [Example 108]: the IC50 (LPAR1 IC50) was in the range of 100 to 1000 nM.

For the molecule `CC(=O)N1CCC(N(C(=O)Nc2ccc(C)nc2OC(F)F)c2ccccc2C(C)C)CC1` [Example 66, 1-(1-acetylpiperidin-4-yl)-3-(2-(difluoromethoxy)-6-methylpyridin-3-yl)-1-(2-isopropylphenyl)urea], the IC50 (LPAR1 IC50) was less than 10 nM.

In the case of `COc1ccc(NC(=O)N(c2ccccc2C(C)C)[C@H]2C[C@](O)(C(F)(F)C(=O)O)C2)c(OC(F)F)n1` [Example 324], the IC50 under setting [1] is less than 10 nM.

Take `CC(C)c1ccccc1N(C(=O)Nc1ccc(Cl)c(F)c1)[C@H]1CC[C@H](C(=O)O)CC1` [Example 158, trans-4-(3-(4-chloro-3-fluorophenyl)-1-(2-isopropylphenyl)ureido)cyclohexane-1-carboxylic acid]: under setting [1], the IC50 lay within 10 to 100 nM.

As to `CC(=O)N1CCC(N(C(=O)Nc2ncc(Br)cc2C=O)c2ccccc2C(C)C)CC1` [Example 140], the IC50 (LPAR1 IC50) lay in the range of 100 to 1000 nM.

On to `COc1cc(C)c(Cl)cc1NC(=O)N(c1ccccc1C(C)C)[C@H]1CC[C@H](C(=O)O)CC1` [Example 328, (1r,4r)-4-(3-(5-chloro-2-methoxy-4-methylphenyl)-1-(2-isopropylphenyl)ureido)cyclohexane-1-carboxylic acid], for which the IC50 under setting [1] was in the range of 10 to 100 nM.

For `COc1ccc(NC(=O)N(c2ccccc2C(C)C)[C@H]2CC[C@H](OC)CC2)c(OC(F)F)n1` [Example 40, 3-(2-(difluoromethoxy)-6-methoxypyridin-3-yl)-1-(2-isopropylphenyl)-1-((1r,4r)-4-methoxycyclohexyl)urea], the IC50 under setting [1] lay in the range of 10 to 100 nM.

With `Cc1ccc(NC(=O)N(c2ccccc2C(C)C)C2CC3(C2)CN(C(=O)Cn2nccn2)C3)c(OC(F)F)n1` [Example 84, 1-(2-(2-(2H-1,2,3-triazol-2-yl)acetyl)-2-azaspiro[3.3]heptan-6-yl)-3-(2-(difluoromethoxy)-6-methylpyridin-3-yl)-1-(2-isopropylphenyl)urea], the IC50 under setting [1] is 100 to 1000 nM.

For the molecule `CC(=O)N1CC2(CC(N(C(=O)Nc3ccc(C)nc3OC(F)F)c3ccccc3C(C)C)C2)C1` [Example 70, 1-(2-acetyl-2-azaspiro[3.3]heptan-6-yl)-3-(2-(difluoromethoxy)-6-methylpyridin-3-yl)-1-(2-isopropylphenyl)urea], the IC50 under setting [1] lay in the range of 100 to 1000 nM.

Regarding `COc1ccc(NC(=O)N(c2ccccc2C(C)C)[C@H]2CC[C@@H](S(C)(=O)=O)CC2)c(OC(F)F)n1` [Example 257, 3-(2-(difluoromethoxy)-6-methoxypyridin-3-yl)-1-(2-isopropylphenyl)-1-((1s,4s)-4-(methylsulfonyl)cyclohexyl)urea], the IC50 under setting [1] is less than 10 nM.

`Cc1ccc(NC(=O)N(c2ccccc2C(C)C)[C@H]2CCOC2)c(OC(F)F)n1` [Example 17, (S)-3-(2-(difluoromethoxy)-6-methylpyridin-3-yl)-1-(2-isopropylphenyl)-1-(tetrahydrofuran-3-yl)urea]: under setting [1], the IC50 lay within 10 to 100 nM.

`Cc1ccc(NC(=O)N(c2ccccc2C(C)C)[C@H]2CC[C@@H](C#N)CC2)c(OC(F)F)n1` [Example 240, 1-((1s,4s)-4-cyanocyclohexyl)-3-(2-(difluoromethoxy)-6-methylpyridin-3-yl)-1-(2-isopropylphenyl)urea]: the 50% inhibitory concentration (IC50) under setting [1] was 100 to 1000 nM.

Take `Cc1ccc(NC(=O)N(c2ccccc2C(C)C)[C@H]2CCC[C@@H](C(=O)O)C2)c(OC(F)F)n1` [Example 285]: the IC50 under setting [1] was less than 10 nM.

For the molecule `CC(=O)N1CCC(N(C(=O)Nc2ccc(C(F)F)nc2OC(F)F)c2ccccc2C(C)C)CC1` [Example 115], the IC50 (LPAR1 IC50) lay in the range of 10 to 100 nM.

Turning to `Cc1ccc(NC(=O)N(c2ccccc2C(C)C)[C@H]2C[C@@H](C(=O)O)C2)c(OC(F)F)n1` [Example 162, cis-3-(3-(2-(difluoromethoxy)-6-methylpyridin-3-yl)-1-(2-isopropylphenyl)ureido)cyclobutane-1-carboxylic acid], the IC50 under setting [1] lay in the range of 100 to 1000 nM.

As to `CC(C)c1ccccc1N(C(=O)Nc1cc(F)c(Cl)cc1OCC(F)F)[C@H]1C[C@@H](CC(=O)O)C1` [Example 331], the IC50 under setting [1] is less than 10 nM.

For the molecule `Cc1ccc(NC(=O)N(c2ccccc2C(C)C)[C@@H]2CC[C@H](C(=O)O)C2)c(OC(F)F)n1` [Example 302], under setting [1], the IC50 was 10 to 100 nM.

`Cc1ccc(NC(=O)N(CC23CC(C(=O)O)(C2)C3)c2ccccc2C(C)C)c(OC(F)F)n1` [Example 173]: the IC50 under setting [1] lay in the range of 10 to 100 nM.
